Laboratory results taken from patent EP4806891A1 (Kangbaida (Sichuan) Biotechnology Co., Ltd., priority 2023, dated 2025).
pIC50: −log10 of the molar value.

Each compound was assayed against T1, HEK-Blue-hTLR7 cells (Homo sapiens, UniProt Q9NYK1) (assay: HEK-Blue-hTLR7 cell inhibition assay). Conditions: R848 0.8 µM, 16 h, OD 620 nm, read-out: TLR7 IC50.
T1 construct: expressed in transfected cells; host or cells: HEK-Blue-hTLR7 cells (HEK293-derived reporter line)
T1 sequence (Q9NYK1 27-1049): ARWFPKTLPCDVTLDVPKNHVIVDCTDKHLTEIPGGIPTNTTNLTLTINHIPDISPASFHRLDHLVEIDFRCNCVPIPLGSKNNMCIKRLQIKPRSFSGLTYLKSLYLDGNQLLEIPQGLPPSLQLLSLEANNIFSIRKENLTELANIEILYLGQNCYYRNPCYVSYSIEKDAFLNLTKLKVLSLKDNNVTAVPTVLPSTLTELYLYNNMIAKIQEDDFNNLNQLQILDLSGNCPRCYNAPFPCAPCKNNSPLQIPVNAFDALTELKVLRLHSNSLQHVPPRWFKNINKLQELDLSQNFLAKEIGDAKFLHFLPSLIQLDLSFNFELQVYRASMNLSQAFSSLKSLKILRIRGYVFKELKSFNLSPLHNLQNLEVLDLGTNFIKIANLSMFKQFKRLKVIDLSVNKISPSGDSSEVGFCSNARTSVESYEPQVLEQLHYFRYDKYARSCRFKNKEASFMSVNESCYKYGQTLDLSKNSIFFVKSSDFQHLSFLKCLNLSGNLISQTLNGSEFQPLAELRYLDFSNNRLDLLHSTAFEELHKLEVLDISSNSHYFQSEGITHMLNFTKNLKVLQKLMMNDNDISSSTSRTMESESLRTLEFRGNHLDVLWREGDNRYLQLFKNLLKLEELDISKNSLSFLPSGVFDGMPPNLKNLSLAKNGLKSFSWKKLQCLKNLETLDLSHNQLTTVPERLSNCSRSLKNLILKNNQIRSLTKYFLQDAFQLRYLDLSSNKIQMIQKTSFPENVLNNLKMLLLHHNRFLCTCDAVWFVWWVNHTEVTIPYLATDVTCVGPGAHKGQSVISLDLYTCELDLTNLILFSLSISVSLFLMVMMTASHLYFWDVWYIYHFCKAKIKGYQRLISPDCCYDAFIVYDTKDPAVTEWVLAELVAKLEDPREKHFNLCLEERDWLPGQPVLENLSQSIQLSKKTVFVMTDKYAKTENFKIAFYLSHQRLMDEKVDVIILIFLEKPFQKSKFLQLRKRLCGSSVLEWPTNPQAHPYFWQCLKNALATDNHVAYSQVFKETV
Type: cell-based
Protocol: HEK-Blue-hTLR7/8/9 cell inhibition assay
1. HEK-Blue-hTLR7/8 cells (1 × 10^4 cells/well) and HEK-Blue-hTLR9 cells (1.5 × 10^4 cells/well) were seeded in a 384-well cell culture plate, with a volume of 30 µL per well. The plate was incubated at 37°C in a 5% CO2 incubator for 4 h. 2. The compound was prepared with DMSO and diluted in DMEM medium to 10 concentrations (1:3 dilution), with final concentrations of 10000, 3333.3, 1111.1, 370.4, 123.5, 41.2, 13.7, 4.6, 1.5, and 0.5 nM; R848 was prepared with DMSO and diluted in DMEM medium, with final concentrations of 0.8 µM (HEK-Blue-hTLR7) and 3 µM (HEK-Blue-hTLR8); ODN2006 was prepared with endotoxin-free water and diluted in DMEM medium, with a final concentration of 1 µM. 3. Cells treated with DMSO were used as the blank control group, while cells treated solely with Resiquimod (R848) were used as the positive control group for HEK-Blue-hTLR7/8, and cells treated solely with ODN2006 were used as the positive control group for HEK-Blue-hTLR9. Cells treated with the test compound together with R848 or ODN2006 were used as the test group. Two parallel wells were set for each group and were placed at 37°C in a 5% CO2 incubator for incubation. 4. After being incubated for 4 h, the 384-well plate of HEK-Blue-hTLR7/8 was taken out from the incubator, and R848 alone or both R848 and the diluted compound were separately added into each well. The plate was placed at 37°C in a 5% CO2 incubator for incubation for 16 h; the 384-well plate of HEK-Blue-hTLR9 was taken out from the incubator, and ODN2006 alone or both ODN2006 and the diluted compound were added separately to each well. The plate was incubated at 37°C in a 5% CO2 incubator for 16 h. 5. After being incubated for 16 h, the 384-well plate was removed from the incubator and centrifuged at 1000 rpm for 1 minute. The optical density value of each well at 620 nm was measured using a multifunctional microplate reader. 6. The cell inhibition rate was calculated as (1-(OD620 test group-OD620 blank group)/(OD620 positive group-OD620 blank group))×100%, and the half maximal inhibitory concentration (IC50) was calculated through curve fitting. Table 1: Activity of the compounds of the present disclosure in HEK-Blue-hTLR7/8/9 cellular assays

Row | Compound | pIC50
1 | CN1CCC(C)(c2nnc([C@]34CN(c5ccc(C#N)c6ncccc56)C[C@@]3(C(F)(F)F)C4)o2)CC1 [Compound 8, 5-((1S,5R)-1-(5-(1,4-dimethylpiperidin-4-yl)-1,3,4-oxadiazol-2-yl)-5-(trifluoromethyl)-3-azabicyclo[3.1.0]hexan-3-yl)quinoline-8-carbonitrile] | > 7.00
2 | N#Cc1ccc(N2C[C@]3(c4nnc(CCN5CCOCC5)o4)C[C@]3(C(F)(F)F)C2)c2cccnc12 [Compound 43, 5-((1S,5R)-1-(5-(morpholinoethyl)-1,3,4-oxadiazol-2-yl)-5-(trifluoromethyl)-3-azabicyclo[3.1.0]hexan-3-yl)quinoline-8-carbonitrile] | > 6.00
3 | N#Cc1ccc(N2C[C@]3(c4nnc(C5(F)CCNC5)o4)C[C@]3(C(F)(F)F)C2)c2cccnc12 (stereo partly drawn) [Compound 46, 5-((1S,5R)-1-(5-(3-fluoropyrrolidin-3-yl)-1,3,4-oxadiazol-2-yl)-5-(trifluoromethyl)-3-azabicyclo[3.1.0]hexan-3-yl)quinoline-8-carbonitrile] | > 7.00
4 | CN1CC(Cc2nnc([C@]34CN(c5ccc(C#N)n6ncc(F)c56)C[C@@]3(C(F)(F)F)C4)o2)C1 [Compound 30, 3-fluoro-4-((1S,5R)-1-(5-((1-methylazetidin-3-yl)methyl)-1,3,4-oxadiazol-2-yl)-5-(trifluoromethyl)-3-azabicyclo[3.1.0]hexan-3-yl)pyrazolo[1,5-a]pyridine-7-carbonitrile] | > 7.00
5 | N#Cc1ccc(N2C[C@]3(c4nnc(CC5CNC5)o4)C[C@]3(C(F)(F)F)C2)c2cccnc12 [Compound 35, 5-((1S,5R)-1-(5-(azetidin-3-ylmethyl)-1,3,4-oxadiazol-2-yl)-5-(trifluoromethyl)-3-azabicyclo[3.1.0]hexan-3-yl)quinoline-8-carbonitrile] | > 6.00
6 | CN1CC(c2nnc([C@]34CN(c5ccc(C(F)(F)F)c6ncccc56)C[C@@]3(C(F)(F)F)C4)o2)C1 [Compound 4, 2-(1-methylazetidin-3-yl)-5-((1S,5R)-5-(trifluoromethyl)-3-(8-(trifluoromethyl)quinolin-5-yl)-3-azabicyclo[3.1.0]hexan-1-yl)-1,3,4-oxadiazole] | > 7.00
7 | Cc1cc(N2CC3(c4nnc(C5CCN(C)CC5)o4)C[C@]3(C(F)(F)F)C2)c2cnn(C)c2n1 (stereo partly drawn) [Compound 2, 2-((5R)-3-(1,6-dimethyl-1H-pyrazolo[3,4-b]pyridin-4-yl)-5-(trifluoromethyl)-3-azabicyclo[3.1.0]hexan-1-yl)-5-(1-methylpiperidin-4-yl)-1,3,4-oxadiazole] | < 6.00
8 | N#Cc1ccc(N2C[C@]3(c4nnc(C5CCOCC5)o4)C[C@]3(C(F)(F)F)C2)c2cccnc12 [Compound 12, 5-((1S,5R)-1-(5-(tetrahydro-2H-pyran-4-yl)-1,3,4-oxadiazol-2-yl)-5-(trifluoromethyl)-3-azabicyclo[3.1.0]hexan-3-yl)quinoline-8-carbonitrile] | > 7.00
9 | CN1CCN(c2nnc([C@]34CN(c5ccc(C#N)c6ncccc56)C[C@@]3(C(F)(F)F)C4)o2)CC1 [Compound 1, 5-((1S,5R)-1-(5-(4-methylpiperazin-1-yl)-1,3,4-oxadiazol-2-yl)-5-(trifluoromethyl)-3-azabicyclo[3.1.0]hexan-3-yl)quinoline-8-carbonitrile] | > 7.00
10 | CN1CCC(Cc2nnc([C@]34CN(c5ccc(C#N)c6ncccc56)C[C@@]3(C(F)(F)F)C4)n2C)CC1 [Compound 38, 5-((1S,5R)-1-(4-methyl-5-((1-methylpiperidin-4-yl)methyl)-4H-1,2,4-triazol-3-yl)-5-(trifluoromethyl)-3-azabicyclo[3.1.0]hexan-3-yl)quinoline-8-carbonitrile] | > 6.00
11 | CN1CCC(c2nnc([C@]34CN(c5ccc(C#N)c6ncccc56)C[C@@]3(C(F)(F)F)C4)o2)CC1=O (stereo partly shown) [Compound 34] | > 7.00
12 | N#Cc1ccc(N2C[C@]3(c4nnc(N)o4)C[C@]3(C(F)(F)F)C2)c2cccnc12 [Compound 7, 5-((1S,5R)-1-(5-amino-1,3,4-oxadiazol-2-yl)-5-(trifluoromethyl)-3-azabicyclo[3.1.0]hexan-3-yl)quinoline-8-carbonitrile] | > 7.00

More lines, now with the values ahead:

Row | pIC50 | Compound
13 | > 7.00 | CN1CCC(F)(c2nnc([C@]34CN(c5ccc(C#N)n6nccc56)C[C@@]3(C(F)(F)F)C4)o2)CC1 [Compound 90, 4-((1S,5R)-1-(5-(4-fluoro-1-methylpiperidin-4-yl)-1,3,4-oxadiazol-2-yl)-5-(trifluoromethyl)-3-azabicyclo[3.1.0]hexan-3-yl)pyrazolo[1,5-a]pyridine-7-carbonitrile]
14 | > 7.00 | FC(F)(F)Oc1ccc(N2C[C@]3(c4nnc(C5(F)CCNCC5)o4)C[C@]3(C(F)(F)F)C2)c2cccnc12 [Compound 96, 2-(4-fluoropiperidin-4-yl)-5-((1S,5R)-3-(8-(trifluoromethoxy)quinolin-5-yl)-5-(trifluoromethyl)-3-azabicyclo[3.1.0]hexan-1-yl)-1,3,4-oxadiazole]
15 | > 7.00 | CN1CC(F)(c2nnc([C@]34CN(c5ccc(C#N)c6ncccc56)C[C@@]3(C(F)(F)F)C4)o2)C1 [Compound 49, 5-((1S,5R)-1-(5-(3-fluoro-1-methylazetidin-3-yl)-1,3,4-oxadiazol-2-yl)-5-(trifluoromethyl)-3-azabicyclo[3.1.0]hexan-3-yl)quinoline-8-carbonitrile]
16 | > 7.00 | CN1CCC(n2cc([C@]34CN(c5ccc(C#N)c6ncccc56)C[C@@]3(C(F)(F)F)C4)nn2)CC1 [Compound 71, 5-((1S,5R)-1-(1-(1-methylpiperidin-4-yl)-1H-1,2,3-triazol-4-yl)-5-(trifluoromethyl)-3-azabicyclo[3.1.0]hexan-3-yl)quinoline-8-carbonitrile]
17 | > 7.00 | N#Cc1ccc(N2C[C@]3(c4nnc(C56CCC(N)(CC5)CC6)o4)C[C@]3(C(F)(F)F)C2)c2cccnc12 [Compound 52, 5-((1S,5R)-1-(5-(4-aminobicyclo[2.2.2]octan-1-yl)-1,3,4-oxadiazol-2-yl)-5-(trifluoromethyl)-3-azabicyclo[3.1.0]hexan-3-yl)quinoline-8-carbonitrile]
18 | > 7.00 | N#Cc1ccc(N2C[C@]3(c4nnc(C56CCC(NC(=O)[C@@H]7COCCN7)(CC5)CC6)o4)C[C@]3(C(F)(F)F)C2)c2cccnc12 [Compound 54, (S)-N-(4-(5-((1S,5R)-3-(8-cyanoquinolin-5-yl)-5-(trifluoromethyl)-3-azabicyclo[3.1.0]hexan-1-yl)-1,3,4-oxadiazol-2-yl)bicyclo[2.2.2]octan-1-yl)morpholine-3-carboxamide]
19 | > 7.00 | N#Cc1ccc(N2C[C@]3(c4nnc(C5CCNCC5)o4)C[C@]3(C(F)(F)F)C2)c2c(F)cnn12 [Compound 80, 3-fluoro-4-((1S,5R)-1-(5-(piperidin-4-yl)-1,3,4-oxadiazol-2-yl)-5-(trifluoromethyl)-3-azabicyclo[3.1.0]hexan-3-yl)pyrazolo[1,5-a]pyridine-7-carbonitrile]
